Source: US6300320A, “Modulation of c-jun using inhibitors of protein kinase C” (Isis Pharmaceuticals, Inc., priority 1999, dated 2001)

Test system: c-jun mRNA expression in A549 cells
Assay: Phorbol ester (TPA) mediated AP-1 gene expression in A549 cells, Northern blotting
Assay type: cell-based
Conditions: Homo sapiens, 0.5 h, 100 nM TPA for 30 minutes, no oligo, basal = 100%
Method: The effect of PKC-α reduction on AP-1 transcription factor components was determined. 12-O-tetradecanoylphorbol-13-acetate (TPA) causes a time dependent accumulation of mRNA transcripts of multiple members of AP-1, including c-jun, jun-B and c-fos.
A549 cells were treated with 100 nM ISIS 9606 (SEQ ID NO. 2) or ISIS 13009 (SEQ ID NO. 23) and DOTMA/DOPE as described in Example 13. Cells were then washed and allowed to recover for an additional 68 hours. Cells were then treated with 100 nM TPA for 30 minutes and the expression of either c-fos, jun-B, c-jun or G3PDH mRNA expression was determined by Northern blotting.
Total RNA was extracted from cells and resolved on agarose gels as described in Example 6. These were transferred to nylon membrane (Biorad, Hercules, Calif.) and probed with ^32 P radiolabelled cDNA probes for different PKC isozymes. Additionally, gels were probed with ^32 P radiolabelled cDNA probes for c-fos, c-jun, and junB (American Type Culture Collection, Manassas, Va.). Gels were routinely stripped and reprobed with radiolabelled human […]-3-phosphate dehydrogenase (G3PDH) probe to confirm equal loading. Radioactive bands were quantified using a Phospholmager (Molecular Dynamics, Sunnyvale, Calif.). […] A scrambled control oligonucleotide was without effect on the up-regulation of any AP-1 family member. […]

## CCCCCCCCCCCCCC(=O)O[C@@H]1[C@@H](C)[C@@]2(O)[C@@H](C=C(CO)C[C@]3(O)C(=O)C(C)=C[C@@H]23)[C@@H]2C(C)(C)[C@]12OC(C)=O [TPA, 12-O-tetradecanoylphorbol-13-acetate]
  activity at 0.1 µM: 353%
